Experimental data: PubChem BioAssay (NCI)
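Cells were grown in 96-well plates and exposed to each compound for 48 hours at five concentrations; endpoints were interpolated linearly between bracketing concentrations, or set to the highest concentration if not reached. TGI is the concentration that stops growth completely.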

Assays:
Test in all cases: inhibition of tumour cell growth, NCI panel, 48 h
M19-MEL melanoma = system: M19-MEL melanoma
SNB-75 CNS = system: SNB-75 CNS
K-562 leukemia = system: K-562 leukemia
OVCAR-4 ovarian = system: OVCAR-4 ovarian
SR leukemia = system: SR leukemia
DLD-1 colon = system: DLD-1 colon
SNB-78 CNS = system: SNB-78 CNS
KM12 colon = system: KM12 colon
HCT-15 colon = system: HCT-15 colon
SK-MEL-28 melanoma = system: SK-MEL-28 melanoma
UACC-257 melanoma = system: UACC-257 melanoma
CAKI-1 renal = system: CAKI-1 renal
U251 CNS = system: U251 CNS
MOLT-4 leukemia = system: MOLT-4 leukemia
MALME-3M melanoma = system: MALME-3M melanoma
SN12C renal = system: SN12C renal
IGROV1 ovarian = system: IGROV1 ovarian
NCI-H460 lung = system: NCI-H460 lung
HCT-116 colon = system: HCT-116 colon
LXFL 529 NSCLC = system: LXFL 529 NSCLC
M14 melanoma = system: M14 melanoma
EKVX NSCLC = system: EKVX NSCLC
ACHN renal = system: ACHN renal
RXF-631 renal = system: RXF-631 renal
SK-MEL-2 melanoma = system: SK-MEL-2 melanoma
CCRF-CEM leukemia = system: CCRF-CEM leukemia
A549 NSCLC = system: A549 NSCLC
KM20L2 colon = system: KM20L2 colon
HT29 colon = system: HT29 colon
SNB-19 CNS = system: SNB-19 CNS
SF-539 CNS = system: SF-539 CNS
SW-620 colon = system: SW-620 colon
HL-60(TB) leukemia = system: HL-60(TB) leukemia
SF-268 CNS = system: SF-268 CNS
LOX IMVI melanoma = system: LOX IMVI melanoma
HCC-2998 colon = system: HCC-2998 colon
HOP-62 NSCLC = system: HOP-62 NSCLC
NCI-H23 lung = system: NCI-H23 lung
786-0 renal = system: 786-0 renal
HOP-92 NSCLC = system: HOP-92 NSCLC
SK-OV-3 ovarian = system: SK-OV-3 ovarian
A498 renal = system: A498 renal
OVCAR-8 ovarian = system: OVCAR-8 ovarian
UACC-62 melanoma = system: UACC-62 melanoma
UO-31 renal = system: UO-31 renal
TK-10 renal = system: TK-10 renal
HOP-18 NSCLC = system: HOP-18 NSCLC
NCI-H226 lung = system: NCI-H226 lung
SF-295 CNS = system: SF-295 CNS
COLO 205 colon = system: COLO 205 colon
SK-MEL-5 melanoma = system: SK-MEL-5 melanoma
NCI-H522 lung = system: NCI-H522 lung
DMS 114 small cell lung = system: DMS 114 small cell lung
OVCAR-5 ovarian = system: OVCAR-5 ovarian
XF 498 CNS = system: XF 498 CNS
DMS 273 small cell lung = system: DMS 273 small cell lung
OVCAR-3 ovarian = system: OVCAR-3 ovarian
RXF 393 renal = system: RXF 393 renal
RPMI-8226 leukemia = system: RPMI-8226 leukemia

Measured: TGI

CCc1cccc(C)c1NC(=O)C(=O)CC(=O)c1ccc(Cl)s1
> 100 µM: M19-MEL melanoma | SNB-75 CNS | K-562 leukemia | OVCAR-4 ovarian | SR leukemia | DLD-1 colon | SNB-78 CNS | KM12 colon | HCT-15 colon | SK-MEL-28 melanoma | UACC-257 melanoma | CAKI-1 renal | U251 CNS | MOLT-4 leukemia | MALME-3M melanoma | SN12C renal | IGROV1 ovarian | NCI-H460 lung | HCT-116 colon | LXFL 529 NSCLC | M14 melanoma | EKVX NSCLC | ACHN renal | RXF-631 renal | SK-MEL-2 melanoma | CCRF-CEM leukemia | A549 NSCLC | KM20L2 colon | HT29 colon | SNB-19 CNS | SF-539 CNS | SW-620 colon | HL-60(TB) leukemia | SF-268 CNS | LOX IMVI melanoma | HCC-2998 colon | HOP-62 NSCLC | NCI-H23 lung | 786-0 renal | HOP-92 NSCLC | SK-OV-3 ovarian | A498 renal | OVCAR-8 ovarian | UACC-62 melanoma | UO-31 renal | TK-10 renal | HOP-18 NSCLC | NCI-H226 lung | SF-295 CNS

O=C(O)[C@H](NS(=O)(=O)c1ccc(F)cc1)c1ccccc1
> 100 µM: COLO 205 colon | M19-MEL melanoma | SNB-75 CNS | K-562 leukemia | OVCAR-4 ovarian | DLD-1 colon | SNB-78 CNS | HCT-15 colon | SK-MEL-28 melanoma | UACC-257 melanoma | CAKI-1 renal | U251 CNS | MOLT-4 leukemia | MALME-3M melanoma | SN12C renal | IGROV1 ovarian | NCI-H460 lung | SK-MEL-5 melanoma | HCT-116 colon | NCI-H522 lung | LXFL 529 NSCLC | DMS 114 small cell lung | M14 melanoma | EKVX NSCLC | ACHN renal | SK-MEL-2 melanoma | OVCAR-5 ovarian | CCRF-CEM leukemia | A549 NSCLC | KM20L2 colon | XF 498 CNS | HT29 colon | SNB-19 CNS | DMS 273 small cell lung | SF-539 CNS | SW-620 colon | SF-268 CNS | LOX IMVI melanoma | HCC-2998 colon | HOP-62 NSCLC | NCI-H23 lung | OVCAR-3 ovarian | 786-0 renal | SK-OV-3 ovarian | RXF 393 renal | RPMI-8226 leukemia | OVCAR-8 ovarian | UACC-62 melanoma | UO-31 renal | TK-10 renal | HOP-18 NSCLC | NCI-H226 lung | SF-295 CNS
